Counter-ions that a name gives are not always drawn.
Assays:
JAK2 tyrosine kinase = target: T1, JAK2 tyrosine kinase (Homo sapiens, UniProt O60674); test: Test 1: inhibitory activity to JAK2 tyrosine kinase (ELISA); assay type: biochemical; details: 25 μM ATP in substrate solution, 30° C. for 1 hour, n=2
T1 construct: purchased Carnabioscience Co
Description: Test 1: Test for inhibitory activity to JAK2 and JAK3 tyrosine kinase 1. Preparation of Test Material
The test material was dissolved in dimethylsulfoxide (DMSO) to be 10 mM, and further diluted with DMSO to be 100-fold concentrations for measurement (1000, 300, 100, 30, 10, 3, 1, 0.3, 0.1, 0.03, 0.01 μM). In addition, solutions diluted with an assay buffer up to 20 times were used as solutions of the test material. As a negative control, a solution of DMSO diluted 20 times with an assay buffer was used. As the assay buffer, 15 mM Tris-Cl (pH 7.5), 0.01 v/v % Tween-20, and 1 mM dithiothreitol were used.
2. Measurement of the Activities of JAK2 and JAK3 Tyrosine Kinases
The activity was determined by ELISA. The solution of the test material (10 μl each; n=2) was placed in a streptavidine-coated 96 well plate (DELFIA Strip Plate 8×12 wells; Perkin Elmer), to which 20 μl each of substrate solution (625 nM biotin-labeled peptide substrate, 25 μM ATP, 25 mM MgCl2, 15 mM Tris-Cl (pH 7.5), 0.01 v/v % Tween-20, and 1 mM dithiothreitol), was added and stirred. Finally, 20 μl each of JAK2 tyrosine kinase (Carnabioscience Co.) (diluted to 0.75 nM with assay buffer) or JAK3 tyrosine kinase (Carnabioscience Co.) (diluted to 0.75 nM with assay buffer) was added, stirred and allowed to stand at 30° C. for 1 hour. The plate was washed 4 times with a washing buffer (50 mM Tris-Cl, pH 7.5, 150 mM NaCl, 0.02 v/v % Tween-20), and then a blocking buffer (0.1% Bovine Serum Albumin, 50 mM Tris-Cl, pH 7.5, 150 mM NaCl, 0.02 v/v % Tween-20)(150 μl each) was added for blocking at 30° C. for 30 minutes. Blocking buffer was removed, and there was added 100 μl each of horse radish peroxidase-labeled anti-phosphorylated tyrosin kinase antibody (BD Bioscience Co.) (diluted 10,000 times with blocking buffer). The plate was incubated at 30° C. for 30 minutes and then washed 4 times with a washing buffer, and 100 μl each of 3,3′,5,5′-tetramethylbenzidine (Sigma-Aldrich Co.) was added to develop color for 10 minutes. 0.1 M sulfuric acid (100 μl each) was added to stop the reaction. The absorbance was measured by means of a micro-plate reader (BIO-RAD; Model 3550) at 450 nm.
3. Analysis of the Results of the Measurement
The measured absorbance was subjected to a non-linear regression analysis by means of a SAS system (SAS Institute Inc.), and the concentration (IC50) of the test material which inhibited 50% of the activity of each tyrosine kinase was estimated.

JAK3 tyrosine kinase = target: T2, JAK3 tyrosine kinase (Homo sapiens, UniProt P52333); test: Test 1: inhibitory activity to JAK3 tyrosine kinase (ELISA); assay type: biochemical; details: 25 μM ATP in substrate solution, 30° C. for 1 hour, n=2
T2 construct: purchased Carnabioscience Co
T2 sequence (P52333 1-1124): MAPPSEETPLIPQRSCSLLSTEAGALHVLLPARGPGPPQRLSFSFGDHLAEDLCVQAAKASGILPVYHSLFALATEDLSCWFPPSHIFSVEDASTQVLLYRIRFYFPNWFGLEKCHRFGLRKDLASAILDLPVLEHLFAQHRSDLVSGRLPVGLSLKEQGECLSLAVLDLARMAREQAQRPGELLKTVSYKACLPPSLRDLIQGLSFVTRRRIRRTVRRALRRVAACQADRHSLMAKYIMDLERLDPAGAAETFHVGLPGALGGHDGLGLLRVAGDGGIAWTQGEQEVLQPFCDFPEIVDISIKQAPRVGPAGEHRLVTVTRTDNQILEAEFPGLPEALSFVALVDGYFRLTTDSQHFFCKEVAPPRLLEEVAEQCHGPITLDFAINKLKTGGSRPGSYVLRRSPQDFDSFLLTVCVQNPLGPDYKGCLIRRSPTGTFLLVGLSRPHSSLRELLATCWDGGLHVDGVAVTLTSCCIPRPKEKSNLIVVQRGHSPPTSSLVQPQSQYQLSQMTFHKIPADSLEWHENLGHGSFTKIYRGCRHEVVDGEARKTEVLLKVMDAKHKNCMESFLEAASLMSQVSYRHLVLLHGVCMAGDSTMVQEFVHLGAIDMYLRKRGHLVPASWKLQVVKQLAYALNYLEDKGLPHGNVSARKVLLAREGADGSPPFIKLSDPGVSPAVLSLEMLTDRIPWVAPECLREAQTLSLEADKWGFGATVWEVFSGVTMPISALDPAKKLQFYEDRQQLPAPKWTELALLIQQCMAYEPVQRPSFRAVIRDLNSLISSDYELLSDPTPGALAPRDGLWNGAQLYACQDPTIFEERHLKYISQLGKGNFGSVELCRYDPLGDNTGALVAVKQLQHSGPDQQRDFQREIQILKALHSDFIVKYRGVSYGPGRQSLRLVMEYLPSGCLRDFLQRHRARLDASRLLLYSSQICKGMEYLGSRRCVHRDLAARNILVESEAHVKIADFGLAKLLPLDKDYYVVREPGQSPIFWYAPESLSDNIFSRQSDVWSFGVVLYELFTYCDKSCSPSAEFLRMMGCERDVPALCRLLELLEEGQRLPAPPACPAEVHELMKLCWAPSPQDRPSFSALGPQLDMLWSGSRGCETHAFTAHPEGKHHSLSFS
Description: Test 1: Test for inhibitory activity to JAK2 and JAK3 tyrosine kinase 1. […] The test material was dissolved in dimethylsulfoxide (DMSO) to be 10 mM, and further diluted with DMSO to be 100-fold concentrations for measurement (1000, 300, 100, 30, 10, 3, 1, 0.3, 0.1, 0.03, 0.01 μM). In addition, solutions diluted with an assay buffer up to 20 times were used as solutions of the test material. As a negative control, a solution of DMSO diluted 20 times with an assay buffer was used. […] 2. Measurement of the Activities of JAK2 and JAK3 Tyrosine Kinases The activity was determined by ELISA. […] The absorbance was measured by means of a micro-plate reader (BIO-RAD; Model 3550) at 450 nm. 3. Analysis of the Results of the Measurement The measured absorbance was subjected to a non-linear regression analysis by means of a SAS system (SAS Institute Inc.), and the concentration (IC50) of the test material which inhibited 50% of the activity of each tyrosine kinase was estimated.

T1 sequence (O60674 whole entry): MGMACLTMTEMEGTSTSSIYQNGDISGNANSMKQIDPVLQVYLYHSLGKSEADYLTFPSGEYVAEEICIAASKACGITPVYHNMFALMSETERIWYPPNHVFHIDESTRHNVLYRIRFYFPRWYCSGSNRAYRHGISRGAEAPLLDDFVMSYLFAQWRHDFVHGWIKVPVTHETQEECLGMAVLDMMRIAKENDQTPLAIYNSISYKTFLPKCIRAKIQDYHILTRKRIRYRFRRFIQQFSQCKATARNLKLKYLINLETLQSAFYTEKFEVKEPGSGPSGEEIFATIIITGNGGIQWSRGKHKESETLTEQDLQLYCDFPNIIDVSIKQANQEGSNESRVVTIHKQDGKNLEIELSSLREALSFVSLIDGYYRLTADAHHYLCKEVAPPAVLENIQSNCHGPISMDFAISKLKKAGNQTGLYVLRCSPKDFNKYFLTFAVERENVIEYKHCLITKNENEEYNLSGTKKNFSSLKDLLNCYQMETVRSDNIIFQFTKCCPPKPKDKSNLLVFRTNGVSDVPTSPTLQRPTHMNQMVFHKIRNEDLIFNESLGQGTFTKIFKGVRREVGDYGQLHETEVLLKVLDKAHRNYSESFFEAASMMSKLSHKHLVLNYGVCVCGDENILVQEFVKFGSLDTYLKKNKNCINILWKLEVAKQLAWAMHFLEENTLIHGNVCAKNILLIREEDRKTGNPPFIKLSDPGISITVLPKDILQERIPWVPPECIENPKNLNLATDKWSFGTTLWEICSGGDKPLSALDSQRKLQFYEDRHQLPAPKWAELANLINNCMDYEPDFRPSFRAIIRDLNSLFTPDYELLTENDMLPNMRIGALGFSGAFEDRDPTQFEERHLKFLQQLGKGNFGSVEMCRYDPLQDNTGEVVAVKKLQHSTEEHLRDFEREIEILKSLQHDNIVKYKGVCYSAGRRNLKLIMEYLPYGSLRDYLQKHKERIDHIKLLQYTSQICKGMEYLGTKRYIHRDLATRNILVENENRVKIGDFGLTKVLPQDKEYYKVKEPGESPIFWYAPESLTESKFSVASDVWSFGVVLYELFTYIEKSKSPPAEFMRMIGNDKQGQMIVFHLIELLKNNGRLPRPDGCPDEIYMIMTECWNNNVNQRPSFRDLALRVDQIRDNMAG

Compound | IC50 (JAK2 tyrosine kinase) [nM] | IC50 (JAK3 tyrosine kinase) [nM]
COc1ncc(-c2cc(Nc3cnccn3)nc(N[C@@H](C)c3ccc(F)cc3)n2)s1 [Example 53, (S)—N^2-[1-(4-Fluorophenyl)ethyl]-6-(2-methoxythiazol-5-yl)-N^4-(pyrazin-2-yl)pyrimidine-2,4-diamine] | 5.9 | 390
C[C@H](Nc1cc(-c2cc[nH]c2)cc(Nc2cnccn2)n1)c1ccc(F)cc1 [Example 116, (S)—N^2-[1-(4-Fluorophenyl)ethyl]-N^6-(pyrazin-2-yl)-4-(1H-pyrrol-3-yl)pyridine-2,6-diamine dihydrochloride] | 5.3 | 340
C[C@H](Nc1cc(-c2ccc(S(N)(=O)=O)cc2)cc(Nc2cnccn2)n1)c1ccc(F)cc1 [Example 126, (S)-4-{2-[1-(4-Fluorophenyl)ethylamino]-6-(pyrazin-2-ylamino)pyridin-4-yl}benzenesulfonamide] | 8.8 | 630
C[C@H](Nc1nc(NCC2CCCO2)cc(Nc2cnccn2)n1)c1ccc(F)cc1 (stereo partly drawn) [Example 68, N^2-[(S)-1-(4-Fluorophenyl)ethyl]-N^4-(pyrazin-2-yl)-N^6-[(tetra hydrofuran-2-yl)methyl]pyrimidine-2,4,6-triamine] | 1.5 | 34
C[C@H](Nc1nc(Nc2cnccn2)cc(N2CCC[C@H]2CO)n1)c1ccc(F)cc1 [Example 69, ((S)-1-{2-[(S)-1-(4-Fluorophenyl)ethylamino]-6-(pyrazin-2-ylamino)pyrimidin-4-yl}pyrrolidin-2-yl)methanol] | 2.6 | 83
Cc1cn(-c2cc(Nc3cnccn3)nc(N[C@@H](C)c3ccc(F)cc3)c2)cn1 [Example 136, (S)—N^2-[1-(4-Fluorophenyl)ethyl]-4-(4-methyl-1H-imidazol-1-yl)-N^6-(pyrazin-2-yl)pyridine-2,6-diamine dihydrochloride] | – | 170
C[C@H](Nc1cc(Nc2ccccn2)cc(Nc2cnccn2)n1)c1ccc(F)cc1 [Example 132, (S)—N^2-[1-(4-Fluorophenyl)ethyl]-N^6-(pyrazin-2-yl)-N^4-(pyridin-2-yl)pyridine-2,4,6-triamine] | – | 350
C[C@H](Nc1cc(OCC2CC2)cc(Nc2cnccn2)n1)c1ccc(F)cc1 [Example 138, (S)-4-(Cyclopropylmethoxy)-N^2-[1-(4-fluorophenyl)ethyl]-N^6-(pyrazin-2-yl)pyridine-2,6-diamine] | – | 420
CNS(=O)(=O)c1ccc(-c2cc(Nc3cnccn3)nc(N[C@@H](C)c3ccc(F)cc3)n2)cc1 [Example 135, (S)-4-{2-[1-(4-Fluorophenyl)ethylamino]-6-(pyrazin-2-ylamino)pyrimidin-4-yl}-N-methylbenzenesulfonamide hydrochloride] | – | 320
C[C@H](Nc1cc(C(=O)NCCN(C)C)cc(Nc2cnccn2)n1)c1ccc(F)cc1 [Example 150, (S)—N-[2-(Dimethylamino)ethyl]-2-[1-(4-fluorophenyl)ethylamino]-6-(pyrazin-2-ylamino)isonicotinamide] | – | 150
C[C@H](Nc1cc(N2CCC3(CC2)OCCO3)cc(Nc2cnccn2)n1)c1ccc(F)cc1 [Example 133, N^2-[(S)-1-(4-Fluorophenyl)ethyl]-N^6-(pyrazin-2-yl)-4-(1,4-dioxa-8-azaspiro[4.5]decan-8-yl)pyridine-2,6-diamine] | – | 230
C[C@H](Nc1cc(CO)cc(Nc2cnccn2)n1)c1ccc(F)cc1 [Example 140, (S)-{2-[1-(4-Fluorophenyl)ethylamino]-6-(pyrazin-2-ylamino)pyridin-4-yl}methanol] | – | 61

More lines, now with the values ahead:

IC50 (JAK2 tyrosine kinase) [nM] | IC50 (JAK3 tyrosine kinase) [nM] | Compound
17 | 1300 | C[C@H](Nc1cc(C(=O)NC2CCC2)cc(Nc2cnccn2)n1)c1ccc(F)cc1 [Example 168, (S)—N-Cyclobutyl-2-[1-(4-fluorophenyl)ethylamino]-6-(pyrazin-2-ylamino)isonicotinamide]
0.92 | 45 | C[C@H](Nc1nc(Nc2cnccn2)cc(N2CC(C)(O)C2)n1)c1ccc(F)cc1 [Example 184, (S)-1-{2-[1-(4-Fluorophenyl)ethylamino]-6-(pyrazin-2-ylamino)pyrimidin-4-yl}-3-methylazetidin-3-ol hydrochloride]
0.41 | – | CC(C)C1(O)CN(c2cc(Nc3cnccn3)nc(N[C@@H](C)c3ccc(F)cc3)n2)C1 [Example 201, (S)-1-{2-[1-(4-Fluorophenyl)ethylamino]-6-(pyrazin-2-ylamino)pyrimidin-4-yl}-3-isopropylazetidin-3-ol hydrochloride]
0.96 | – | C[C@H](Nc1nc(Nc2cnccn2)cc(N2CC(C(=O)N(C)C)C2)n1)c1ccc(F)cc1 [Example 176, (S)-1-{2-[1-(4-Fluorophenyl)ethylamino]-6-(pyrazin-2-ylamino)pyrimidin-4-yl}-N,N-dimethylazetidin-3-carboxamide]
– | 470 | C[C@H](Nc1cc(C(=O)N2CCN(C)CC2)cc(Nc2cnccn2)n1)c1ccc(F)cc1 [Example 164, (S)-{2-[1-(4-Fluorophenyl)ethylamino]-6-(pyrazin-2-ylamino)pyridin-4-yl}(4-methylpiperazin-1-yl)methanone hydrochloride]
– | 39 | C[C@H](Nc1nc(Nc2cnccn2)cc(N2CC(C(N)=O)C2)n1)c1ccc(F)cc1 [Example 158, (S)-1-{2-[1-(4-Fluorophenyl)ethylamino]-6-(pyrazin-2-ylamino)pyrimidin-4-yl}azetidine-3-carboxamide]
– | 100 | CNC(=O)c1cc(Nc2cnccn2)nc(N[C@@H](C)c2ccc(F)cc2)c1 [Example 160, (S)-2-[1-(4-Fluorophenyl)ethylamino]-N-methyl-6-(pyrazin-2-ylamino)isonicotinamide]

— patent publication US8586591B2, “Aminopyrazine derivative and medicine” (Nippon Shinyaku Co., Ltd., priority 2009, dated 2013)
